The values that follow come from ChEMBL document CHEMBL1134128, “Rational design of a new series of pronucleotide” (Bioorg Med Chem Lett, 2001).

Series [1] is described as follows: Half life in human serum. It counts as ADME, cell-free.
The nature of series [2]: Half life were determined in CEM-SS cell extract in decomposition step 1. It counts as ADME. The following applies: human.
Series [3] can be described thus: Half life in culture medium containing 10% of heat inactivated foetal calf serum. The series is classed as ADME, cell-free, Bos taurus. The conditions noted are these: cattle.
A short description of series [4]: Partition coefficient (logP). The following applies: octanol/water. The series is classed as physicochemical.
Series [5] is described as follows: The pKa value was reported. The series is classed as physicochemical.
Series [6] has as its system CEM-SS. The series can be described thus: Cytotoxic concentration to inhibit HIV replication in TK CEM-SS cell line and the value is represented as CC50. The series is classed as functional. The conditions noted are these: Homo sapiens.
Series [7] deals with CEM-SS. The series can be described thus: Effective concentration to inhibit HIV replication in TK CEM-SS cell line and the value is represented as EC50. The series is classed as functional, cell-based. The conditions noted are these: Homo sapiens.
The test system of series [8] is CEM-SS. The series is described as follows: Effective concentration to inhibit HIV replication in TK CEM-SS cell line. The series is classed as functional, cell-based. The conditions noted are these: Homo sapiens.
In series [9] the test system is CEM-SS. The series can be described thus: Cytotoxic concentration to inhibit HIV replication in TK CEM-SS cell line. It counts as functional. The following applies: Homo sapiens.

Usually half-life stands for how long it takes for the measured level to halve. Read a low half-life as rapid decline. One may read the logP as the decadic logarithm of the partition coefficient of the neutral form, usually between octanol and water. A word on the pKa: it is the pH at which an ionisable group is half protonated. The low end stands for a group that gives up its proton readily, the high end for a group that holds its proton tightly. As usually defined, the CC50 is the concentration giving 50% cytotoxicity. The EC50 is the concentration giving half of the maximal effect. Regarding `Cc1cn(C2CC(N=[N+]=[N-])C(COP(=O)(NC(C)(C)C)OCCSC(=O)C(C)(C)C)O2)c(=O)[nH]c1=O` (centres undefined), the half-life in series [1] was 23 h; in series [2], 1.2 h; in series [3], 350 h. Moreover, the logP in series [4] came out at 2.45. The compound further showed a pKa in series [5] of 10.4. In addition, the 50% cytotoxic concentration (CC50) in series [6] is above 100 µM. Moreover, the midpoint of the response in series [7], the EC50, lay at 1.5 µM.
With `Cc1cn(C2CC(N=[N+]=[N-])C(COP(=O)(NC(C)C)OCCSC(=O)C(C)(C)C)O2)c(=O)[nH]c1=O` (centres undefined), the half-life in series [1] is 10 h; in series [2], 1.2 h; in series [3], 200 h. The compound also yielded a lipophilicity (logP) in [4] of 1.91. The same compound showed a pKa in series [5] of 10.6. The compound further gave an EC50 in series [8] of 0.63 µM. The compound also yielded a CC50 in [9] above 100 µM.
Consider `Cc1cn(C2CC(N=[N+]=[N-])C(COP(=O)(O)N3CCOCC3)O2)c(=O)[nH]c1=O` (centres undefined), for which the half-life was 23 h in series [1], 2.1 h in series [2] and 385 h in series [3]. The logP in series [4] was 1.86. In [5], this compound gave a pKa of 8.36. The CC50 in series [6] is above 100 µM. The compound also displayed an EC50 in [7] of 2 µM.
Take `CCCCN(CCCC)P(=O)(O)OCC1OC(n2cc(C)c(=O)[nH]c2=O)CC1N=[N+]=[N-]` (centres undefined): the values for the half-life in [1], in [2] and in series [3] were 23 h, 0.96 h and 136 h, respectively. In [4], this compound came in with a logP of 4. Besides, in series [5], the pKa was 11.2. This compound also showed a CC50 in [6] above 10 µM. In [7], this compound had a half-maximal effective concentration (EC50) above 10 µM.
The compound `Cc1cn(C2CC(N=[N+]=[N-])C(COP(=O)(O)N3CCCCC3)O2)c(=O)[nH]c1=O` (centres undefined) showed a half-life in [2] of 1.2 h. In series [4], this compound gave a logP of 2.77. The compound further returned a pKa in [5] of 11.1. This compound showed a CC50 in [6] above 100 µM. This compound had a 50% effective concentration (EC50) in [7] of 5.2 µM.
In the case of `CCCCNP(=O)(O)OCC1OC(n2cc(C)c(=O)[nH]c2=O)CC1N=[N+]=[N-]` (centres undefined), the half-life in [1] is 29 h; in series [2], 1.3 h; in [3], 165 h. This compound also had a log partition coefficient (logP) in [4] of 2.67. In series [5], the pKa was 10.6. The compound further gave a CC50 in [6] above 100 µM. The same compound registered an EC50 in [7] of 1.2 µM.
`Cc1cn(C2CC(N=[N+]=[N-])C(COP(=O)(Nc3ccccc3)OCCSC(=O)C(C)(C)C)O2)c(=O)[nH]c1=O` (centres undefined): the half-life in series [1] is 23 h; in series [2] it was 1.4 h; in series [3], 100 h. In addition, the logP in series [4] came to 2.55. In series [5], this compound returned a pKa of 4.68. The compound also showed a cytotoxic concentration (CC50) in series [6] above 10 µM. Besides, the concentration for a half-maximal effect (EC50) in series [7] was above 10 µM.
The compound `Cc1cn([C@H]2C[C@H](N=[N+]=[N-])[C@@H](CO)O2)c(=O)[nH]c1=O` [ZIDOVUDINE] returned an EC50 in series [8] above 100 µM. The same compound registered a CC50 in [9] above 100 µM.
